How the values were obtained:
[1] = human, serum
[2] = Comments (NB not yet translated). [column 'COMMENTAIRES' in source]; conditions: human
[3] = human
[4] = human; remark: listed apart in the source
[5] = Times to onset, minimal and maximal, observed in the indexed observations. [column 'DELAI' in source]; conditions: human
[6] = human; remark: listed apart in the source
[7] = human; remark: listed apart in the source
[8] = human; remark: listed apart in the source
[9] = Highest frequency of moderate liver toxicity observed during clinical trials, expressed as a percentage. [column '% BIOL' in source]; conditions: human
[10] = human; remark: listed apart in the source
[11] = human; remark: listed apart in the source
[12] = Highest frequency of acute liver toxicity observed during clinical trials, expressed as a percentage. [column '% AIGUE' in source]; conditions: human
[13] = human; remark: listed apart in the source
[14] = human, serum, 4383 h
[15] = human; remark: listed apart in the source
[16] = human; remark: listed apart in the source
[17] = human, serum; remark: listed apart in the source
[18] = Proposed mechanism(s) of liver damage. [column 'MEC' in source]; conditions: human
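Wherever Hepatotoxicity (association with vascular disease) is given: count of indexed literature references reporting vascular liver injury in humans, e.g. peliosis hepatitis, hepatic veno-occlusive disease or Budd-Chiari syndrome.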
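Wherever Hepatotoxicity (benign tumour) is given: value is a count of indexed literature references citing a benign tumour confirmed by histopathology.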
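Wherever Hepatotoxicity (choleostasis) is given: human cholestatic liver injury, shown by histopathology or by peak ALT or AST elevation over alkaline phosphatase ratio below 2, value counts indexed literature reports.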
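Wherever Hepatotoxicity (chronic liver disease) is given: chronic liver injury confirmed by histopathology or persistently raised serum aminotransferase activity beyond 6 months, value given as the count of indexed literature references.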
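Wherever Hepatotoxicity (cirrhosis) is given: value is a count of indexed literature references reporting cirrhosis confirmed by histopathology.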
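Wherever Hepatotoxicity (cytolytic) is given: human cytolytic liver injury, shown by histopathology or by a ratio above 5 of peak ALT or AST elevation to alkaline phosphatase elevation, value counts indexed references.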
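Wherever Hepatotoxicity (granulomatous hepatitis) is given: value is a count of indexed literature references reporting granulomatous liver disease confirmed by histopathology.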
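Wherever Hepatotoxicity (malignant tumour) is given: malignant tumour confirmed by histopathology, value gives the count of indexed literature references reporting it.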
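Wherever Hepatotoxicity (severe hepatitis) is given: human clinical data: severe hepatitis, meaning potentially life-threatening liver failure or clinically observed cases, the value counts how many indexed literature references report it.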
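Wherever Hepatotoxicity (steatosis) is given: steatosis confirmed by histopathology, value is the count of indexed references.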

Compound | Hepatotoxicity (acute) [1] | Hepatotoxicity (comment) [2] | Hepatotoxicity (association with vascular disease) [3] | Hepatotoxicity (choleostasis) [4] | Hepatotoxicity (time to onset) [5] | Hepatotoxicity (animal toxicity known) [6] | Hepatotoxicity (severe hepatitis) [7] | Hepatotoxicity (malignant tumour) [8] | Hepatotoxicity (moderate) [9] [%] | Hepatotoxicity (benign tumour) [10] | Hepatotoxicity (granulomatous hepatitis) [11] | Hepatotoxicity (acute) [12] [%] | Hepatotoxicity (cirrhosis) [13] | Hepatotoxicity (chronic liver disease) [14] | Hepatotoxicity (steatosis) [15] | Hepatotoxicity (cytolytic) [16] | Hepatotoxicity (moderate) [17] | further results
FC(F)OC(F)C(F)(F)F (stereo unspecified) | 4 | AC_ANTI-TFA | 0 | 0 | 1 day - 12 days | yes | 3 | 0 | 11.1 | 0 | 0 | 0 | 0 | 0 | 0 | 4 | 2 | Hepatotoxicity (mechanism) [18]: Reactive metabolite, Allergic
CC(=O)Oc1ccccc1C(=O)O [ASPIRIN] | 31 | #S.REYE | 0 | 2 | 1 week - 5 years | yes | 6 | 0 | 66 | 0 | 3 | 0 | 1 | 5 | 0 | 26 | 30 | Hepatotoxicity (mechanism) [18]: Dose-dependant, Reactive metabolite
CCCCNC(=O)NS(=O)(=O)c1ccc(N)cc1 [CARBUTAMIDE] | 5 | RC/METAHEXAMIDE | 0 | 0 | 2 weeks - 4 weeks | yes | 3 | 0 | 30 | 0 | 0 | 1.5 | 0 | 0 | 0 | 1 | 1 | –
CCC[C@@H]1C[C@@H](C(=O)N[C@@H]([C@H]2O[C@H](SC)[C@H](O)[C@@H](O)[C@H]2O)[C@H](C)Cl)N(C)C1 [CLINDAMYCIN] | 5 | #CBP | – | 1 | 2 days - 17 days | yes | 0 | 0 | 52 | 0 | 1 | 0 | 0 | 1 | 0 | 2 | 15 | –
CCOC(=O)C(C)(C)Oc1ccc(Cl)cc1 [CLOFIBRATE] | 3 | RC/FENOFIBRATE | 0 | 1 | 2 months - 7 years | yes | 0 | 0 | 19.7 | 1 | 1 | 0 | 0 | 0 | 1 | 2 | 4 | –
COc1cccc2c1C(=O)c1c(O)c3c(c(O)c1C2=O)C[C@@](O)(C(C)=O)C[C@@H]3O[C@H]1C[C@H](N)[C@H](O)[C@H](C)O1 [DAUNORUBICIN] | 2 | I/THIOGUANINE | 2 | 0 | 3 cures | yes | 0 | 0 | 68 | 0 | 0 | 0 | 0 | 0 | 0 | 2 | 3 | –
CNCCCN1c2ccccc2CCc2ccccc21 [DESIPRAMINE] | – | RC/IMIPRAMINE/TRIMIPRAMINE/CYAMEMAZINE | 0 | – | 1 week - 1 month | yes | – | 0 | – | 0 | – | – | 0 | 0 | 0 | – | 4 | Hepatotoxicity (choleostasis) ([4]; Liver): 1; Hepatotoxicity (severe hepatitis) ([7]; Liver): 1; Hepatotoxicity (moderate) ([9]; Liver): 8.7%; Hepatotoxicity (granulomatous hepatitis) ([11]; Liver): 0; Hepatotoxicity (acute) ([12]; Liver): 0%; Hepatotoxicity (cytolytic) ([16]; Liver): 5; Hepatotoxicity (mechanism) ([18]; Liver): Allergic
C=CC[C@@H]1/C=C(\C)C[C@H](C)C[C@H](OC)[C@H]2O[C@@](O)(C(=O)C(=O)N3CCCC[C@H]3C(=O)O[C@H](/C(C)=C/[C@@H]3CC[C@@H](O)[C@H](OC)C3)[C@H](C)[C@@H](O)CC1=O)[C@H](C)C[C@@H]2OC [TACROLIMUS ANHYDROUS] | 0 | MVO PELIOSE | 2 | 0 | 1 month - 3 months | yes | 0 | 0 | 37 | 0 | 0 | 0 | 0 | 0 | 0 | 0 | 1 | –
CN(C)[C@@H]1C(O)=C(C(N)=O)C(=O)[C@@]2(O)C(O)=C3C(=O)c4c(O)cccc4[C@@](C)(O)[C@H]3C[C@@H]12 [TETRACYCLINE] | 10 | CHOLESTASE_PROLONGEE DUCTOPENIE | 0 | 8 | 3 days - 2 months | yes | 7 | 0 | 6.3 | 0 | 0 | 0 | 0 | 1 | 22 | 2 | 1 | –
Clc1ccccc1CN1CCc2sccc2C1 [TICLOPIDINE] | – | CHOLANGITE CHOLESTASE_PROLONGEE AC_ANTI-N | 0 | – | 1 week - 3 years | yes | – | 0 | – | 0 | – | – | 0 | 1 | 1 | – | – | Hepatotoxicity (choleostasis) ([4]; Liver): 56; Hepatotoxicity (granulomatous hepatitis) ([11]; Liver): 2; Hepatotoxicity (cytolytic) ([16]; Liver): 15; Hepatotoxicity (mechanism) ([18]; Liver): Allergic
CC[C@]1(O)C[C@@H]2CN(CCc3c([nH]c4ccccc34)[C@@](C(=O)OC)(c3cc4c(cc3OC)N(C)[C@H]3[C@@](O)(C(=O)OC)[C@H](OC(C)=O)[C@]5(CC)C=CCN6CC[C@]43[C@@H]65)C2)C1 [VINBLASTINE] | 1 | I/DOXORUBICINE | 1 | 1 | 2 cures | yes | 0 | 0 | 22.6 | 0 | 0 | 0 | 0 | 0 | 0 | 0 | 5 | –
PARAFFIN | 0 | LIPOGRANULOMES | 0 | 0 | 10 years | yes | 0 | 0 | 0 | 0 | 0 | 0 | 0 | 0 | 7 | 0 | 0 | –
